A short description of this series: solubility of nateglinide in crystallisation solvents. It counts as physicochemical. The text has this:
First solvents in which nateglinide is readily soluble, i.e., in amounts of at least 1% by weight at an ambient temperature, include lower alcohols, such as methanol, ethanol and isopropanol. Polar solvents such as acetone, tetrahydrofuran, dioxane and dichloromethane can also be effective when used as the first solvent. Second solvents in which nateglinide is only poorly soluble, i.e., in amounts of 0.01% by weight or less, include water, hexane, heptane and diethyl ether. Where a mixed solvent is employed as the first solvent, a mixture of ethanol and toluene or a mixture of methanol and ethyl acetate is effective preferably in combination with water as the second solvent, and more preferably with water containing from about 0.5 to about 3% by weight of hydroxypropylmethylcellulose. The amount of nateglinide in the solvent ranges preferably from 1 to 50% by weight of the resulting mixture. If the amount of nateglinide is more than 50% by weight then the slurry properties of the initial suspension are poor and it will be difficult to agitate the mixture and dissolve the solid. On the other hand, it is not efficient in terms of the volume of the solvent required to use less than 1% of nateglinide by weight. […]

These results are taken from patent US7247746B2, “Crystal forms of N-(trans-4-isopropylcyclohexylcarbonyl)-D-phenylalanine” (Novartis, AG, priority 2002, dated 2007).

A value given as a limit tells only on which side of the number the result lay.

As to `CC(C)[C@H]1CC[C@H](C(=O)N[C@H](Cc2ccccc2)C(=O)O)CC1` [nateglinide, N-(trans-4-isopropylcyclohexylcarbonyl)-D-phenylalanine], the “amount in which nateglinide is readily soluble (first solvents)” value (at an ambient temperature, methanol, ethanol, isopropanol, also acetone, tetrahydrofuran, dioxane, dichloromethane) is recorded as “at least 1 % by weight”. The “amount in which nateglinide is only poorly soluble (second solvents)” value (water, hexane, heptane and diethyl ether) is no more than 0.01 % by weight.
